From publication PMC12413448, “Atomic resolution structures of the methane-activating enzyme in anaerobic methanotrophy reveal extensive post-translational modifications” (Nature Communications, 2025)

What was measured:
[1] = biological target: T1, MCR from ANME-2d^V (Methyl-Coenzyme M Reductase) (Candidatus Methanoperedens sp., UniProt Z9LNO2W1Q3+Z9MSE7NHP1+Z9ZZ61DSW2); experiment: X-ray crystal structure, […] Å; conditions: as isolated; mixture of ligands modelled in active site
T1 sequence (Z9MSE7NHP1 1-566): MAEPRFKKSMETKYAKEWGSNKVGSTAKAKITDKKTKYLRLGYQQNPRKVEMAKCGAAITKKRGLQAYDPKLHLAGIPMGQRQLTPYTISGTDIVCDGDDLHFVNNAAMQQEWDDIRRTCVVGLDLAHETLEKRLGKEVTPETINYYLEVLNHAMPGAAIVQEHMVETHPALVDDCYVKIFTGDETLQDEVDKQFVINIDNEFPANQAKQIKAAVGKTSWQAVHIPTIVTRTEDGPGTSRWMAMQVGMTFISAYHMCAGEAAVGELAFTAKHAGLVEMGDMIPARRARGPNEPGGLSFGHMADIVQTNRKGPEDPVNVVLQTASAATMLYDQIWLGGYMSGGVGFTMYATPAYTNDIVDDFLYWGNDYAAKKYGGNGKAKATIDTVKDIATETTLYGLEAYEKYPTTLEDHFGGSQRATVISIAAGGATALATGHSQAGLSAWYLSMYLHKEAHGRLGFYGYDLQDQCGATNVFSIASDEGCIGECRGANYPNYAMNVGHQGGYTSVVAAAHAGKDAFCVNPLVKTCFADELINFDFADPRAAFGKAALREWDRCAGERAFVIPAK
T1 sequence (Z9ZZ61DSW2 1-434): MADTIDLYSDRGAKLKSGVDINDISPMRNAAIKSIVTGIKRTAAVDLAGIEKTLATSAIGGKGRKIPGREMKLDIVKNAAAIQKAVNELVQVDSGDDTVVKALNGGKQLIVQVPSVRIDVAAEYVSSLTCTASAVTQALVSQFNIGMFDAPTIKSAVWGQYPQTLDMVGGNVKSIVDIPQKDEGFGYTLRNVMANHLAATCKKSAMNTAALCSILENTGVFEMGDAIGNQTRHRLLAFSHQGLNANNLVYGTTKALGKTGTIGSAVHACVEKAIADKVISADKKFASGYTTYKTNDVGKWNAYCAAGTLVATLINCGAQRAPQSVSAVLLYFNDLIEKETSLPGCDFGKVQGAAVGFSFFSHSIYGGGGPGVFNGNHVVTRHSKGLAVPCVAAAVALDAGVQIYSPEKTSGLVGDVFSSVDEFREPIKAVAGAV
T1 sequence (Z9LNO2W1Q3 1-249): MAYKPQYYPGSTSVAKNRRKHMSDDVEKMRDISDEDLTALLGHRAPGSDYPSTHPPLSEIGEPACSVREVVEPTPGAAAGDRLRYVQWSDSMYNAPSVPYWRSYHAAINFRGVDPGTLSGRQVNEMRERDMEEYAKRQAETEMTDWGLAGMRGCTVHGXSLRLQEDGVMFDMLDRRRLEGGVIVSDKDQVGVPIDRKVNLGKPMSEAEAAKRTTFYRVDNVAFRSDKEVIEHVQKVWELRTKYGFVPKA

[2] = biological target: T2, MCR from ANME-2d^O (Methyl-Coenzyme M Reductase) (Candidatus Methanoperedens sp. BLZ2, UniProt Z9I9A7LEW2+Z9NDC8PKK5+Z9T835AYK6); experiment: X-ray crystal structure, […] Å; format: binding; conditions: as isolated, trapped in active site; reduced thiol
T2 construct: native purification from bioreactor enrichment; (alpha beta gamma)2 dimer of heterotrimers; seven native PTMs including 3(S)-methylhistidine 159 on gamma; full length
T2 sequence (Z9T835AYK6 1-562): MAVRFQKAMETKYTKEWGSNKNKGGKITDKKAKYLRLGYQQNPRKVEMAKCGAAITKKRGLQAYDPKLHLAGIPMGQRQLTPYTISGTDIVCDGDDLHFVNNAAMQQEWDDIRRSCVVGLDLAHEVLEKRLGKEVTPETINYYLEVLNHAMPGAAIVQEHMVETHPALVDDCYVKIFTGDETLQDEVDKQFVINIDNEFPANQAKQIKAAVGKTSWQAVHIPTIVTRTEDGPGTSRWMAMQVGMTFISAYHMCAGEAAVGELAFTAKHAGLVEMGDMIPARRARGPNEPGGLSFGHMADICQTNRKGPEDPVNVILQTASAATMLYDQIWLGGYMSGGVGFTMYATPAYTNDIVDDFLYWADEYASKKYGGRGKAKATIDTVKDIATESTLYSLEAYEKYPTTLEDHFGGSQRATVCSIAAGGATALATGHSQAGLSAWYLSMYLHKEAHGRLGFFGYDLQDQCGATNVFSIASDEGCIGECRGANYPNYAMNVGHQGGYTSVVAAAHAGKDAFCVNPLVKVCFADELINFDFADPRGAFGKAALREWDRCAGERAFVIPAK
T2 sequence (Z9NDC8PKK5 1-434): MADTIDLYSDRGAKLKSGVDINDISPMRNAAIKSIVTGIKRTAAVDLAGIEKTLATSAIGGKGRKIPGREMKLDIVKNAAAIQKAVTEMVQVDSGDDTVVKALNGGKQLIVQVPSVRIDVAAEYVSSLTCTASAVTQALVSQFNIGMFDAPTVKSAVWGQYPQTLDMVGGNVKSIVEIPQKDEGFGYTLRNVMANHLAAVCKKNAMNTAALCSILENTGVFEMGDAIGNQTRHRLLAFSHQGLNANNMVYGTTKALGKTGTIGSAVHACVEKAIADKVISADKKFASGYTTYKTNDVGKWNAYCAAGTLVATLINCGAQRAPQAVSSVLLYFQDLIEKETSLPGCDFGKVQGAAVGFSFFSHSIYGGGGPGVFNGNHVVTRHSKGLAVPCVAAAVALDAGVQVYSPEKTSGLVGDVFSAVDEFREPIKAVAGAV
T2 sequence (Z9I9A7LEW2 1-249): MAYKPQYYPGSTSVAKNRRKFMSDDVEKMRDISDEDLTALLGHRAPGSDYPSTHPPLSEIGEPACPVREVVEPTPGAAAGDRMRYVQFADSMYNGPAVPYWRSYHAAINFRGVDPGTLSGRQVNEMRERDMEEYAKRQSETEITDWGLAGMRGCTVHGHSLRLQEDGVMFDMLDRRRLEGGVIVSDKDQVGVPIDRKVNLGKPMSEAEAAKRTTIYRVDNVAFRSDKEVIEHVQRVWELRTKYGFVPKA

Row | SMILES | X-ray crystal structure, 0.98 Å [1] | X-ray crystal structure, 0.98 Å [2]
1 | C[C@@H](OP(=O)(O)O)[C@H](NC(=O)CCCCCCSSCCS(=O)(=O)O)C(=O)O [heterodisulfide] | optimal when the model included CoM-SH, CoB-SH, the heterodisulfide, and methyl-CoM | 
2 | C[C@@H](OP(=O)(O)O)[C@H](NC(=O)CCCCCCS)C(=O)O [CoB-SH] |  | MCRs from ANME-2c and ANME-2d^O contain reduced coenzymes trapped in the active site
3 | O=S(=O)(O)CCS [CoM-SH] | optimal when the model included CoM-SH, CoB-SH, the heterodisulfide, and methyl-CoM | MCRs from ANME-2c and ANME-2d^O contain reduced coenzymes trapped in the active site
